In patent US6329405A, “Cyclobutene derivatives, their preparation and their therapeutic uses” (Sankyo Company, Limited, priority 1999, dated 2001):
pIC50: −log10 of the molar value.

Key:
[1] = molecular target: T1, human ileal bile acid transporter (Homo sapiens, UniProt Q12908); experiment: Measurement of Bile Acid Transporter Inhibitory Activity in vitro (uptake of [3H]-taurocholic acid into hIBAT-expressing Caco-2 cells); format: cell-based; conditions: 0.1 μCi [3H]-taurocholic acid, 37° C., 1 hour
T1 construct: expressed in transfected cells
T1 sequence (Q12908 1-348): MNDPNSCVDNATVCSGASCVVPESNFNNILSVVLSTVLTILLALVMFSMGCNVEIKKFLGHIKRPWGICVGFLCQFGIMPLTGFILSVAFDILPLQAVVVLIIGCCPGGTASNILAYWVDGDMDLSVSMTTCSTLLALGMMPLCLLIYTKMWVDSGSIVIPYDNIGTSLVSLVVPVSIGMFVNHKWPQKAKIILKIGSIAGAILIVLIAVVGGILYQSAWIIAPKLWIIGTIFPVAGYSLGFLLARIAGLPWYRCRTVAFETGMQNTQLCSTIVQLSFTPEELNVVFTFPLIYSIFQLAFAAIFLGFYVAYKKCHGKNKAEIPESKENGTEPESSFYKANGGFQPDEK
Description: Measurement of Bile Acid Transporter Inhibitory Activity in vitro
1) Insertion of human ileal bile acid transporter cDNA into a mammalian expression vector
Human ileal bile acid transporter cDNA (GenBank accession number U10417, hereinafter abbreviated as "hIBAT") was amplified by PCR using a human kidney cDNA library ("Marathon-Ready"™, Clontech Laboratories) as a template. The sense oligonucleotide primer used was 5'-[…]-3' (corresponding to residues 512-533 of hIBAT cDNA: Sequence ID No. 1) while the antisense oligonucleotide primer used was 5'-[…]-3' (corresponding to residues 1649-1670 of hIBAT cDNA: Sequence ID NO. 2). […]
After incubation, the cells were washed 5 times with ice cooled PBS (phosphate buffered saline) containing 0.2% bovine serum albumin and 1 mM non-radioactive taurocholic acid. […] Radioactivity was measured using a "Top Count" (Packard) liquid scintillation counter.
By measuring the radioactivity of the control (no text compound) and comparing this with the radioactivity obtained from the cells exposed to test compound at various, predetermined concentrations, it was possible to determine a percentage inhibition (%) and to obtain an IC50 for the test compound against the ileal bile acid transporter activity.

[2] = test system: ileal bile acid transporter; experiment: Measurement of Bile Acid Transporter Inhibitory Activity in vivo ([3H]-taurocholic acid radioactivity in gall bladder bile); design: species or system Syrian golden hamsters; conditions: male hamsters; oral gavage 100 mg/10 ml/kg; [3H]-taurocholic acid 1.5 hours after; gall bladder bile at 24 hours
Experimental: Measurement of Bile Acid Transporter Inhibitory Activity in vivo
Male Syrian golden hamsters were used. The hamsters were reared in cages and fed food and water ad libitum. Test compound was orally administered by gavage (100 mg/10 ml/kg) as a suspension in 0.5% w/v carboxymethyl cellulose aqueous solution. Each hamster was given orally 1 μCi of [^3 H]-taurocholic acid ([…]) in physiological saline 1.5 hours after administration of the test compound. Twenty four hours after the oral administration of [^3 H]-taurocholic acid, each of the hamsters was sacrificed and the gall bladder bile was collected. The total radioactivity in the bladder bile was determined and compared to a vehicle-treated group.
Percentage inhibition (%) was determined by the following formula:
Inhibition percentage=100-(radioactivity in the treated
group)/(radioactivity in the control group)×100

Row | pIC50 [1] | SMILES | Percentage inhibition [2] [%]
1 | 4.86 | C[C@H](NC(c1ccccc1)c1cccc(Nc2c(N)c(=O)c2=O)c1)c1ccccc1 (single isomer, unassigned) [2 (isomer B)] | 61.87
2 |  | COc1ccc(C(N[C@H](C)c2cc(F)cc(F)c2)c2cccc(Nc3c(O)c(=O)c3=O)c2)cc1 (single isomer, unassigned) [64(e)] | 80.0
